# Test results published in patent publication US10475593B2, “Use of halogen derivatives of histidine as electrolytic salt in a photovoltaic dye cell” (CENTRE NATIONAL DE LA RECHERCHE SCIENTIFIQUE, priority 2014, dated 2019).
# Test: Thermogravimetric analysis under air
# Assay type: physicochemical
# Procedure: A thermogravimetric analysis under air of the compound 3a was also carried out after storage exposed to the air for 3 weeks.
# By way of comparison, a thermogravimetric analysis of an imidazolium iodide not coming within the invention, namely 1,3-dimethylimidazolium iodide (DMII), was also carried out.
# The results obtained are given in the appended FIGS. 1 and 2. FIG. 1 gives the results of the calorimetric analysis of the compound 3a. In this figure, the heat flux (in W/g) is a function of the temperature (in ° C.). FIG. 2 gives the results of the thermogravimetric analysis for the compound 3a (continuous line) in comparison with the DMII (noncontinuous line).
# In comparison, DMII allows a loss in weight of the order of 30% originating from the water captured as a result of its hygroscopicity.
SMILES,hygroscopicity (after storage exposed to the air for 3 weeks),temperature up to which the compound is stable (thermogravimetric analysis under air) [°C],loss in weight originating from captured water (hygroscopicity) (thermogravimetric analysis) [%]
"COC(=O)CCc1cn(C)c[n+]1C.[I-] [Compound 3a, 4-(3-methoxy-3-oxopropyl)-1,3-dimethyl-1H-imidazol-3-ium Iodide]",does not exhibit any hygroscopicity nature,300,
"Cn1cc[n+](C)c1.[I-] [DMII, 1,3-Dimethylimidazolium iodide, reference compound]",,,~30
